Laboratory results published in patent US9023384B2, “Liposome and method for injecting substance to cell using this liposome” (Tokyo Medical and Dental University, priority 2004, dated 2015).

Assays:
[1] = system: COX-2 mRNA in U2OS cells carrying expressed Cx43; experiment: COX-2 expression by RT-PCR after IL-1 stimulation; format: cell-based
Method: (§1) Specifically, the U2OS cells used in Example 2 was initially cultured until 80 to 90% density in a 10-cm culture dish, on which a liposome containing the NBD peptide was then allowed to act for 12 hours. In this example, the liposome used was constructed in the same way as in Example 1 except that a solution used contained 50 μL of the NBD peptide.
In FIG. 8, “Cx-U2OS” denotes a result obtained using a liposome having connexon, and “U2OS” denotes a result obtained using a liposome having no connexon. […] Moreover, the suppression of COX-2 expression was not confirmed in the administration of NBD alone, the administration of NBD using the liposome having no Cx43 expression, administration after pretreatment with GA, and the administration of mutant NBD. Furthermore, the NBD effect was not confirmed on U2OS having no Cx43 expression.

[2] = system: NFκB activity in U2OS cells carrying expressed Cx43; experiment: NF-kB reporter gene assay (intracellular luciferase activity) after IL-1β stimulation; format: cell-based
Excerpt: As schematically shown in FIG. 6, an IKK complex is activated by IL-1β stimulation or the like and thereby phosphorylates IκB. The phosphorylated IκB is further polyubiquitinated and degraded by a pathway in a proteasome system. As a result, the suppressive effect of IκB on NFκB (p50+p65) disappears. The nuclear-imported NFκB increases the transcriptional activity of a gene of interest. A NEMO Binding Domain ((SEQ ID NO:3); hereinafter, NBD) is known to be a sequence present in the C-terminus of IKKβ, one component in the IKK complex, and be necessary for binding with IKKγ (NEMO). The solubilized NBD oligopeptide originally suppresses normal IKK functions through its competitive inhibition of the binding of IKKβ with NEMO and thereby suppresses the nuclear import of NFκB and the transcription of a gene of interest. […] Thus, in this example, a liposome having connexon consisting of Cx43 was used to attempt the administration of the NBD peptide into cells via a gap junction.
as §1, with “peptide. […]” for “peptide.”

Compound | suppression of COX-2 expression by NBD administration after pretreatment with GA ([1]; pretreatment with GA) | effect of pretreatment with gap junction inhibitor on the NBD effect on NFκB activity ([2]; pretreatment before NBD administration using Cx43-expressing liposome) | suppression of IL-1 stimulation-induced rises in COX-2 expression ([1]; cells carrying expressed Cx43) | suppression of IL-1β stimulation-induced rises in NFκB activity ([2]; liposome for 12 hours, then IL-1β for 24 hours, cells carrying expressed Cx43)
CC1(C)[C@@H](O)CC[C@]2(C)[C@H]3C(=O)C=C4[C@@H]5C[C@@](C)(C(=O)O)CC[C@]5(C)CC[C@@]4(C)[C@]3(C)CC[C@@H]12 [18β-glycyrrhetinic acid] | not confirmed | suppressed the NBD effect | – | –
NBD peptide: NEMO Binding Domain oligopeptide (SEQ ID NO:3), administered without liposome (TALDWSWLQTE; listed as Homo sapiens) | – | – | not confirmed | not confirmed
